The target of experiment [1] is IKZF1 adjoined to nanoluciferase (Nluc) (Homo sapiens (Human), UniProt Q13422). The experiment can be described thus: IKZF1 Dual Luciferase Assay. The class given is cell-based. The note with it: 4 hours; read-out: Nluc/Fluc IKZF1 IC50.
Experimental: Transduced cells were selected with puromycin at 2 μg/mL and expanded. […] Cells were incubated with compound for 4 hours at 37° C., 5% CO2 and then allowed to cool to room temperature. To each plate was added 25 μL of Fluc buffer (200 mM Tris, 15 mM MgSO4, 100 uM EDTA, 1 mM DTT, 1 mM ATP, 200 uM Coenzyme A, 400 uM D-Luciferin, 0.1% Trition X-100).
In experiment [2] the target is fusion of mutant FKBP12 to nanoluciferase (Homo sapiens (Human), UniProt P62942+Q96SW2, F36V). The experiment can be described thus: FKBP Dual Luciferase Assay (mutant FKBP12, 36V).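 On all read-outs here: cells exposed to rising degrader concentrations, FKBP12 fusion level read as NLuc/FLuc signal ratio, lower ratio means more degradation.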 The experiment is classed as cell-based. The note with it: for Dmax: read-out: Max Degradation (dual luciferase, %) FKBP 36V.
Experimental: The cells were treated with increasing concentrations of various dFKBPs for 4 hours. The amount of NLuc and FLuc was measured, and the abundance of the FKBP12-HA-NLuc was quantified by calculating the signal ratio of NLuc/FLuc.
A further experiment has as its target CRBN-DDB1/BRD4 (Homo sapiens (Human), UniProt O60885+Q96SW2). Briefly: CRBN-DDB1/BRD4 Dimerization Assay.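 Further: AlphaScreen proximity signal between GST-tagged BRD4 and CRBN-DDB1 with glutathione donor and nickel chelate acceptor beads, read after 1 hr compound incubation at room temperature, values from Gaussian curve fit.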 The class given is binding.
Experiment [3] has as its target BRD4 adjoined to nanoluciferase (Nluc) (Homo sapiens (Human), UniProt O60885+Q96SW2). The experiment can be described thus: BRD4 Dual Luciferase Assay. The experiment is classed as cell-based.
Experimental: Transduced cells were selected with puromycin and expanded. […] Cells were incubated with compound for 4 hours at 37° C., 5% CO2 and then allowed to cool to room temperature. To each plate was added 25 μL of Fluc buffer (200 mM Tris, 15 mM MgSO4, 100 uM EDTA, 1 mM DTT, 1 mM ATP, 200 uM Coenzyme A, 400 uM D-Luciferin, 0.1% Trition X-100).
Where [4] appears, read: Gaussian fit of dimerization signal.
Where [5] appears, read: Gaussian fit parameter of dimerization signal.
The mark [6] stands for this setting: FKBP 36V, 4 hours, read-out: DC50 (nM) FKBP 36V.

Where two headings read alike, the source gives them in different places.

For the molecule `O=C1CCC(N2C(=O)c3cccc(O)c3C2=O)C(=O)N1` [Compound D-1, 2-(2,6-dioxopiperidin-3-yl)-4-hydroxyisoindoline-1,3-dione], in experiment [1], the DC50 is above 50000 nM. As for `O=C1CCC(N2C(=O)c3ccc([N+](=O)[O-])cc3C2=O)C(=O)N1` [Compound D-2, 2-(2,6-dioxopiperidin-3-yl)-5-nitroisoindoline-1,3-dione], the DC50 in experiment [1] is above 50000 nM.

With `CC(=O)Nc1cccc2c1C(=O)N(C1CCC(=O)NC1=O)C2=O` [Compound D-3, N-(2-(2,6-dioxopiperidin-3-yl)-1,3-dioxoisoindolin-4-yl)acetamide], in experiment [1], the DC50 worked out at 444 nM. Still for that read-out and setting: in the case of `CC(=O)Nc1ccc2c(c1)C(=O)N(C1CCC(=O)NC1=O)C2=O` [Compound D-5, N-(2-(2,6-dioxopiperidin-3-yl)-1,3-dioxoisoindolin-5-yl)acetamide] it was above 50000 nM; in that of `Cc1nc2ccccc2c(=O)n1C1CCC(=O)NC1=O` [Compound D-9, 3-(2-methyl-4-oxoquinazolin-3(4H)-yl)piperidine-2,6-dione], 7610 nM; in that of `O=C1CCC(N2C(=O)c3cccc([N+](=O)[O-])c3C2=O)C(=O)N1` [Compound D-10, 2-(2,6-dioxopiperidin-3-yl)-4-nitroisoindoline-1,3-dione], above 50000 nM. The same measure, in the same setting: the figure for `Cc1nc2ccccc2c(=O)n1C1CC(=O)NC1=O` [Compound D-11, 3-(2-methyl-4-oxoquinazolin-3(4H)-yl)pyrrolidine-2,5-dione] is above 50000 nM. Turning to `O=C1CCC(N2C(=O)c3ccc(C(=O)O)cc3C2=O)C(=O)N1` [Compound D-13, 2-(2,6-dioxopiperidin-3-yl)-1,3-dioxoisoindoline-5-carboxylic acid], the DC50 in experiment [1] is above 50000 nM. As to `O=C1CCC(N2C(=O)c3cccc(F)c3C2=O)C(=O)N1` [Compound D-14, 2-(2,6-dioxopiperidin-3-yl)-4-fluoroisoindoline-1,3-dione], the DC50 in experiment [1] was above 50000 nM.

Turning to `O=C1CCC(N2C(=O)c3ccc(C(=O)NCc4ccccc4)cc3C2=O)C(=O)N1` [Compound D-15, N-benzyl-2-(2,6-dioxopiperidin-3-yl)-1,3-dioxoisoindoline-5-carboxamide], the DC50 in experiment [1] is above 50000 nM. For `O=C1CCC(N2C(=O)c3cccc(NCc4ccccc4)c3C2=O)C(=O)N1` [Compound D-16, 4-(benzylamino)-2-(2,6-dioxopiperidin-3-yl)isoindoline-1,3-dione], in experiment [1], the DC50 was 23.9 nM.

Regarding `Cc1cccc2c1C(=O)N(C1CCC(=O)NC1=O)C2=O` [Compound D-19, 2-(2,6-dioxopiperidin-3-yl)-4-methylisoindoline-1,3-dione], in experiment [1], the DC50 worked out at 111 nM. Still for that read-out and setting: the figure for `CCN(CC)c1cccc2c1C(=O)N(C1CCC(=O)NC1=O)C2=O` [Compound D-21, 4-(diethylamino)-2-(2,6-dioxopiperidin-3-yl)isoindoline-1,3-dione] is 140 nM. On the same count and under the same terms, the figure for `O=C1CCC(N2C(=O)c3cccc(CNC(=O)C4CC4)c3C2=O)C(=O)N1` [Compound D-22, N-((2-(2,6-dioxopiperidin-3-yl)-1,3-dioxoisoindolin-4-yl)methyl)cyclopropanecarboxamide] is 534 nM.

As for `CC(=O)NCc1cccc2c1C(=O)N(C1CCC(=O)NC1=O)C2=O` [Compound D-23, N-((2-(2,6-dioxopiperidin-3-yl)-1,3-dioxoisoindolin-4-yl)methyl)acetamide], the DC50 in experiment [1] came to 1020 nM.

As for `O=C1CCC(N2C(=O)c3ccc(F)cc3C2=O)C(=O)N1` [Compound D-24, 2-(2,6-dioxopiperidin-3-yl)-5-fluoroisoindoline-1,3-dione], the DC50 in experiment [1] is above 50000 nM. Turning to `O=C1CCC(N2C(=O)c3ccc(NCc4ccccc4)cc3C2=O)C(=O)N1` [Compound D-25, 5-(benzylamino)-2-(2,6-dioxopiperidin-3-yl)isoindoline-1,3-dione], the DC50 in experiment [1] is above 50000 nM. On the same count and under the same terms, in the case of `CC(C)Nc1ccc2c(c1)C(=O)N(C1CCC(=O)NC1=O)C2=O` [Compound D-26, 2-(2,6-dioxopiperidin-3-yl)-5-(isopropylamino)isoindoline-1,3-dione] it was above 50000 nM; in that of `CCN(CC)c1ccc2c(c1)C(=O)N(C1CCC(=O)NC1=O)C2=O` [Compound D-27, 5-(diethylamino)-2-(2,6-dioxopiperidin-3-yl)isoindoline-1,3-dione], above 50000 nM. With `CC[C@H](C(=O)N1CCCC[C@H]1C(=O)O[C@H](CCc1ccc(OC)c(OC)c1)c1cccc(OCC(=O)NCCCCCCCCNC(=O)COc2cccc3c2C(=O)N(C2CCC(=O)NC2=O)C3=O)c1)c1cc(OC)c(OC)c(OC)c1` (stereo partly drawn) [c1FKBP*-9], the DC50 in experiment [2] (read-out: DC50 (nM) FKBP 36V, 4 hours) turned out to be 3.9 nM. With `CC[C@@H]1C(=O)N(C)c2cnc(Nc3ccc(C(=O)NCCCCNC(=O)COc4cccc5c4C(=O)N(C4CCC(=O)NC4=O)C5=O)cc3OC)nc2N1C1CCCC1` (stereo partly drawn) [dBET2], on CRBN-DDB1/BRD4 (setting [4]), the “Dimer Amplitude” value turned out to be 20549 and the “Dimer Mean” value was −7.428. Further, the “Dimer SD” value on CRBN-DDB1/BRD4 (setting [5]) is given as 0.7005. Regarding `Cc1sc2c(c1C)C(c1ccc(Cl)cc1)=N[C@@H](CC(=O)NCCNC(=O)COc1cccc3c1C(=O)N(C1CCC(=O)NC1=O)C3=O)c1nnc(C)n1-2` (stereo partly drawn) [dBET3], at CRBN-DDB1/BRD4 (setting [4]), the “Dimer Amplitude” value amounted to 16389 and the “Dimer Mean” value is on record as −7.497. Moreover, the “Dimer SD” value at CRBN-DDB1/BRD4 (setting [5]) was found to be 0.6763. Besides, in experiment [3] (concentration at Emax), the “Conc@Emax” value was 0.5 µM. For `Cc1sc2c(c1C)C(c1ccc(Cl)cc1)=N[C@@H](CC(=O)NCCCCCCNC(=O)COc1cccc3c1C(=O)N(C1CCC(=O)NC1=O)C3=O)c1nnc(C)n1-2` (stereo partly drawn) [dBET5], in that order: 18644, −6.277, 0.4127 and 1.581 µM.

Consider `CC[C@@H]1C(=O)N(C)c2cnc(Nc3ccc(C(=O)NCCCCCCNC(=O)COc4cccc5c4C(=O)N(C4CCC(=O)NC4=O)C5=O)cc3OC)nc2N1C1CCCC1` (stereo partly drawn) [dBET7], for which, on CRBN-DDB1/BRD4 (setting [4]), the “Dimer Amplitude” value is given as 31800 and the “Dimer Mean” value was −6.18. Also, the “Dimer SD” value at CRBN-DDB1/BRD4 (setting [5]) is reported as 0.4549. The “Conc@Emax” value in experiment [3] (concentration at Emax) amounted to 0.5 µM.

With `Cc1sc2c(c1C)C(c1ccc(Cl)cc1)=N[C@@H](CC(=O)NCCCOCCOCCOCCCNC(=O)COc1cccc3c1C(=O)N(C1CCC(=O)NC1=O)C3=O)c1nnc(C)n1-2` (stereo partly drawn) [dBET9], at CRBN-DDB1/BRD4 (setting [4]), the “Dimer Amplitude” value is given as 16889 and the “Dimer Mean” value is −7.496. The “Dimer SD” value at CRBN-DDB1/BRD4 (setting [5]) is 0.5198. `Cc1sc2c(c1C)C(c1ccc(Cl)cc1)=N[C@@H](CC(=O)NCCCCCCNC(=O)c1ccc3c(c1)C(=O)N(C1CCC(=O)NC1=O)C3=O)c1nnc(C)n1-2` (stereo partly drawn) [dBET15]: on CRBN-DDB1/BRD4, the “Dimer Amplitude” value amounted to 13540, the “Dimer Mean” value is listed as −7.111 and the “Dimer SD” value is reported as 0.6279. In experiment [3], the “Conc@Emax” value is 5 µM. For the molecule `Cc1sc2c(c1C)C(c1ccc(Cl)cc1)=N[C@@H](CC(=O)NCCCCCCCCOc1cccc3c1C(=O)N(C1CCC(=O)NC1=O)C3=O)c1nnc(C)n1-2` (stereo partly drawn) [dBET21], at CRBN-DDB1/BRD4 (setting [4]), the “Dimer Amplitude” value stood at 758.9 and the “Dimer Mean” value is listed as −6.306. In addition, the “Dimer SD” value on CRBN-DDB1/BRD4 (setting [5]) amounted to 1.327. For `CC[C@H](C(=O)N1CCCC[C@H]1C(=O)OC(CCc1ccc(OC)c(OC)c1)c1cccc(OCC(=O)NCCCCCCOc2cccc3c2C(=O)N(C2CCC(=O)NC2=O)C3=O)c1)c1cc(OC)c(OC)c(OC)c1` (stereo partly drawn) [dFKBP*-13], the DC50 in experiment [2] (setting [6]) stood at 1.2 nM. In experiment [2] (FKBP 36V, 4 hours), the Dmax is 83%. Taken in the same sequence, the figures for `CC[C@H](C(=O)N1CCCC[C@H]1C(=O)OC(CCc1ccc(OC)c(OC)c1)c1cccc(OCC(=O)NCCCCCCCCCCOc2cccc3c2C(=O)N(C2CCC(=O)NC2=O)C3=O)c1)c1cc(OC)c(OC)c(OC)c1` (stereo partly drawn) [dFKBP*-14] were 57 nM and 85%.

Take `CC[C@H](C(=O)N1CCCC[C@H]1C(=O)O[C@H](CCc1ccc(OC)c(OC)c1)c1cccc(OCC(=O)NCCOCCOCCOc2cccc3c2C(=O)N(C2CCC(=O)NC2=O)C3=O)c1)c1cc(OC)c(OC)c(OC)c1` (stereo partly drawn) [dFKBP*-15]: in experiment [2] (setting [6]), the DC50 stood at 28 nM. Also, in experiment [2] (FKBP 36V, 4 hours), the Dmax turned out to be 66%. `CC[C@H](C(=O)N1CCCC[C@H]1C(=O)OC(CCc1ccc(OC)c(OC)c1)c1cccc(OCC(=O)NCCCCC(=O)Nc2cccc3c2C(=O)N(C2CCC(=O)NC2=O)C3=O)c1)c1cc(OC)c(OC)c(OC)c1` (stereo partly drawn) [dFKBP*-16]: the DC50 in experiment [2] (setting [6]) worked out at 99 nM. Moreover, the Dmax in experiment [2] (FKBP 36V, 4 hours) worked out at 38%. With `CC[C@H](C(=O)N1CCCC[C@H]1C(=O)OC(CCc1ccc(OC)c(OC)c1)c1cccc(OCC(=O)NCCCOCCCNC(=O)COc2cccc3c2C(=O)N(C2CCC(=O)NC2=O)C3=O)c1)c1cc(OC)c(OC)c(OC)c1` (stereo partly drawn) [dFKBP*-17], in experiment [2] (setting [6]), the DC50 is 69 nM. Also, the Dmax in experiment [2] (FKBP 36V, 4 hours) amounted to 64%. For `CC[C@H](C(=O)N1CCCC[C@H]1C(=O)OC(CCc1ccc(OC)c(OC)c1)c1cccc(OCC(=O)NCCCCOc2cccc3c2C(=O)N(C2CCC(=O)NC2=O)C3=O)c1)c1cc(OC)c(OC)c(OC)c1` (stereo partly drawn) [dFKBP*-18], in that order: 6.4 nM and 80%.

With `CC[C@H](C(=O)N1CCCC[C@H]1C(=O)O[C@H](CCc1ccc(OC)c(OC)c1)c1cccc(OCC(=O)NCCOCCOc2cccc3c2C(=O)N(C2CCC(=O)NC2=O)C3=O)c1)c1cc(OC)c(OC)c(OC)c1` (stereo partly drawn) [dFKBP*-19], the DC50 in experiment [2] (setting [6]) was 1.7 nM. The Dmax in experiment [2] (FKBP 36V, 4 hours) was determined as 94%. `CC[C@H](C(=O)N1CCCC[C@H]1C(=O)OC(CCc1ccc(OC)c(OC)c1)c1cccc(OCC(=O)NCCCCCCCC(=O)Nc2cccc3c2C(=O)N(C2CCC(=O)NC2=O)C3=O)c1)c1cc(OC)c(OC)c(OC)c1` (stereo partly drawn) [dFKBP*-20]: the DC50 in experiment [2] (setting [6]) is 17 nM. Further, the Dmax in experiment [2] (FKBP 36V, 4 hours) was found to be 75.7%. On to `CC[C@H](C(=O)N1CCCC[C@H]1C(=O)OC(CCc1ccc(OC)c(OC)c1)c1cccc(OCC(=O)NCc2ccc(CNC(=O)COc3cccc4c3C(=O)N(C3CCC(=O)NC3=O)C4=O)cc2)c1)c1cc(OC)c(OC)c(OC)c1` (stereo partly drawn) [dFKBP*-21], for which the DC50 in experiment [2] (setting [6]) came out at 15 nM. For the same molecule, the Dmax in experiment [2] (FKBP 36V, 4 hours) was found to be 91%.

The values above are taken from US11059801B2, “Methods to induce targeted protein degradation through bifunctional molecules” (Dana-Farber Cancer Institute, Inc., priority 2014, dated 2021).
